Test results taken from patent US20230091472A1, “GALECTIN-3 INHIBITING C-GLYCOSIDE KETONES, ETHERS, AND ALCOHOLS” (GLYCOMIMETICS, INC., priority 2019, published 2023).

Target: T1, galectin-3 (Homo sapiens, UniProt P17931)
T1 construct: purchased IBL IBATGPO414
Assay: Galectin-3 Activity - ELISA Assay (inhibition of binding of galectin-3 to a Galβ1-3GlcNAc carbohydrate structure)
Settings: competitive ELISA; galectin-3 binding to immobilized Galβ1-3GlcNAcβ1-3Galβ1-4GlcNAcβ-PAA-biotin polymer; A450 readout; read-out: IC50 (μM), Galectin-3 Antagonist Activity
Experimental: Galectin-3 antagonists were evaluated for their ability to inhibit binding of galectin-3 to a Galβ1-3GlcNAc carbohydrate structure. The detailed protocol was as follows. A 1 ug/mL suspension of a Galβ1-3GlcNAcβ1-3Galβ1-4GlcNAcβ-PAA-biotin polymer (Glycotech, catalog number 01-096) was prepared. A 100 uL aliquot of the polymer was added to the wells of a 96-well streptavidin-coated plate (R&D Systems, catalog number CP004). A 100 uL aliquot of 1× Tris Buffered Saline (TBS, Sigma, catalog number T5912-10X) was added to control wells. The polymer was allowed to bind to the streptavidin-coated wells for 1.5 hours at room temperature. The contents of the wells were discarded and 200 uL of 1×TBS containing 1% bovine serum albumin (BSA) was added to each well as a blocking reagent and the plate was kept at room temperature for 30 minutes. The wells were washed three times with 1×TBS containing 0.1% BSA. A serial dilution of test compounds was prepared in a separate V-bottom plate (Corning, catalog number 3897). A 75 uL aliquot of the highest concentration of the compound to be tested was added to the first well in a column of the V-bottom plate then 15 ul were serially transferred into 60 uL 1×TBS through the remaining wells in the column to generate a 1 to 5 serial dilution. A 60 uL aliquot of 2 ug/mL galectin-3 (IBL, catalog number IBATGPO414) was added to each well in the V-bottom plate. A 100 uL aliquot of the galectin-3/test compound mixture was transferred from the V-bottom plate into the assay plate containing the Galβ1-3GlcNAc polymer. Four sets of control wells in the assay plate were prepared in duplicate containing 1) both Galβ1-3GlcNAc polymer and galectin-3, 2) neither the polymer nor galectin-3, 3) galectin-3 only, no polymer, or 4) polymer only, no galectin-3. The plate was gently rocked for 1.5 hours at room temperature. The wells were washed four times with TBS/0.1% BSA. A 100 uL aliquot of anti-galectin-3 antibody conjugated to horse radish peroxidase (R&D Systems, from DGAL30 kit) was added to each well and the plate was kept at room temperature for 1 hour. The wells were washed four times with TBS/0.1% BSA. A 100 uL aliquot of TMB substrate solution was added to each well. The TMB substrate solution was prepared by making a 1:1 mixture of TMB Peroxidase Substrate (KPL, catalog number 5120-0048) and Peroxidase Substrate Solution B (KPL, catalog number 5120-0037). The plate was kept at room temperature for 10 to 20 minutes. The color development was stopped by adding 100 uL 10% phosphoric acid (RICCA Chemical Co., catalog number 5850-16). The absorbance at 450 nm (A450) was measured using a FlexStation 3 plate reader (Molecular Devices). Plots of A450 versus test compound concentration and IC50 determinations were made using GraphPad Prism 6.

T1 sequence (P17931 whole entry): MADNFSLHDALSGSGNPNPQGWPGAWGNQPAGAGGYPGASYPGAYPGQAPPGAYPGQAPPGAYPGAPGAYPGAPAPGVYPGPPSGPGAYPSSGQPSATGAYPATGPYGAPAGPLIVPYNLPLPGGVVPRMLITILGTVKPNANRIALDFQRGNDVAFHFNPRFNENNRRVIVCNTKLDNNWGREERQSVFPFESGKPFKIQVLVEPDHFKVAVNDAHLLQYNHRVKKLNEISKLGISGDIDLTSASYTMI

Row | SMILES | IC50
1 | CC(=O)[C@@H](OCc1ccc(Br)cc1)[C@@H]1OC(CO)[C@H](O)C(n2cc(-c3cc(F)c(F)c(F)c3)nn2)C1O (stereo partly drawn) [Compound 16] | 0.32 µM
2 | COC1C(n2cc(-c3cc(F)c(F)c(F)c3)nn2)[C@@H](O)C(CO)O[C@H]1[C@H](OCc1ccc(Cl)cc1)C(C)=O (stereo partly drawn) [Compound 32] | 0.82 µM
3 | COC1C(n2cc(-c3cc(F)c(F)c(F)c3)nn2)[C@@H](O)C(CO)O[C@H]1[C@H](OCc1ccc(Cl)cc1)C(=O)CC(C)C (stereo partly drawn) [Compound 33] | 0.63 µM
4 | COC1C(n2cc(-c3cc(F)c(F)c(F)c3)nn2)[C@@H](O)C(CO)O[C@H]1[C@H](OCc1ccc(Cl)cc1)C(=O)c1cccs1 (stereo partly drawn) [Compound 34] | 0.84 µM
5 | CCC(=O)[C@@H](OCc1ccc(Cl)cc1)[C@@H]1OC(CO)[C@H](O)C(n2cc(-c3cc(F)c(F)c(F)c3)nn2)C1OC (stereo partly drawn) [Compound 35] | 0.75 µM
6 | COC1C(n2cc(-c3cc(F)c(F)c(F)c3)nn2)[C@@H](O)C(CO)O[C@H]1[C@H](OCc1ccc(Cl)cc1)[C@@H](C)O (stereo partly drawn) [Compound 41] | 0.59 µM
7 | COC1C(n2cc(-c3cc(F)c(F)c(F)c3)nn2)[C@@H](O)C(CO)O[C@H]1[C@H](OCc1ccc(C(F)(F)F)nc1)C(C)(C)O (stereo partly drawn) [Compound 44] | 57 µM
8 | CCC(=O)[C@@H](OCc1ccc(Cl)cc1)[C@@H]1OC(CO)[C@H](O)C(n2cc(-c3cc(F)c(F)c(F)c3)nn2)C1O (stereo partly drawn) [Compound 74] | 0.32 µM
9 | COC1C(n2cc(-c3cc(F)c(F)c(F)c3)nn2)[C@@H](O)C(CO)O[C@H]1[C@H](OCc1ccc(Cl)cc1)C(=O)C1CC1 (stereo partly drawn) [Compound 75] | 1.18 µM
10 | [2H]C([2H])([2H])OC1C(n2cc(-c3cc(F)c(F)c(F)c3)nn2)[C@@H](O)C(CO)O[C@H]1[C@H](OCc1ccc(Cl)cc1)C(=O)C([2H])([2H])C([2H])([2H])[2H] (stereo partly drawn) [Compound 76] | 0.66 µM
11 | [2H]C([2H])([2H])OC1C(n2cc(-c3cc(F)c(F)c(F)c3)nn2)[C@@H](O)C(CO)O[C@H]1[C@H](OCc1ccc(Cl)cc1)C(C)=O (stereo partly drawn) [Compound 77] | 1.09 µM
12 | [2H]C([2H])([2H])OC1C(n2cc(-c3cc(F)c(F)c(F)c3)nn2)[C@@H](O)C(CO)O[C@H]1[C@H](OCc1ccc(Br)cc1)C(=O)C([2H])([2H])C([2H])([2H])[2H] (stereo partly drawn) [Compound 78] | 0.5 µM
13 | [2H]C([2H])([2H])OC1C(n2cc(-c3cc(F)c(F)c(F)c3)nn2)[C@@H](O)C(CO)O[C@H]1[C@H](OCc1ccc(Br)cc1)C(=O)c1ccc(F)cc1 (stereo partly drawn) [Compound 79] | 1.76 µM
14 | [2H]C([2H])([2H])OC1C(n2cc(-c3cc(F)c(F)c(F)c3)nn2)[C@@H](O)C(CO)O[C@H]1[C@H](OCc1ccc(Br)cc1)C(=O)c1ccsc1 (stereo partly drawn) [Compound 80] | 0.44 µM
15 | [2H]C([2H])([2H])OC1C(n2cc(-c3cc(F)c(F)c(F)c3)nn2)[C@@H](O)C(CO)O[C@H]1[C@H](OCc1ccc(Br)cc1)C(=O)c1ccc(Cl)s1 (stereo partly drawn) [Compound 81] | 3.21 µM
